Data as given in US7642283B2, “Mitochrondrial permeability transition pore affinity labels and modulators” (Hoffmann-La Roche Inc., priority 2003, dated 2010).

Columns and labels:
MPTP [1] = target: T1, MPTP (Rattus norvegicus, UniProt Q9Z2L0); assay: Ca2+-retention capacity of rat brain mitochondria (Calcium Green-5N); assay type: biochemical; settings: 1 μM compound; 5 μM Ca2+ pulses; mean±SEM of 3; control 530±70
T1 construct: other: n=2; glutamate/malate; other: glutamate/malate; 20 min; mean±SEM; unit not given; other: 300 nM; relieved by 50 μM Ub5
T1 sequence (Q9Z2L0 2-283): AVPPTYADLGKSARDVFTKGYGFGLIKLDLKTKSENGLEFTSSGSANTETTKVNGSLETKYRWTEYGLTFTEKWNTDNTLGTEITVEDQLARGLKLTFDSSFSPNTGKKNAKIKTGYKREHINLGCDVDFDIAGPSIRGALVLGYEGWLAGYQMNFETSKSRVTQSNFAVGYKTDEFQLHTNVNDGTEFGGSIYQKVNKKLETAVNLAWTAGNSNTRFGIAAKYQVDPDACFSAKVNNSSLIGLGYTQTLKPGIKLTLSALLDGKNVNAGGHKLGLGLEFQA
Experimental: FIG. 4: (A) Effect of Spiro[cyclopentane-1,5′-[5H]dibenzo[a,d]cyclohepten]-2-one,10′,11′-dihydro-3-methylene- and CsA on Ca^2+-retention capacity of rat brain mitochondria. The incubation medium contained 0.2 M sucrose, 10 mM Tris-Mops, pH 7.4, 1 mM Pi-Tris, 5 μM EGTA and 5 mM glutamate/2.5 mM malate, buffered to pH 7.4 with Tris, containing 0.01% (w/v) bovine serum albumin and 1 μM Calcium Green-5N. The final volume was 2.5 ml. Trace (a) control, (b) 1 μM CsA, (c) 1 μM Spiro[cyclopentane-1,5′-[5H]dibenzo[a,d]cyclohepten]-2-one,10′,11′-dihydro-3-methylene- and (d) 1 μM CsA plus 1 μM Spiro[cyclopentane-1,5′-[5H]dibenzo[a,d]cyclohepten]-2-one,10′,11′-dihydro-3-methylene-. Each fluorescence spike corresponds to addition of 5 μM Ca^2+. (B) Comparison of Ca^2+-retention capacity in liver (a) and brain mitochondria (b).
Effect of Spiro[cyclopentane-1,5′-[5H]dibenzo[a,d]cyclohepten]-2-one,10′,11′-dihydro-3-methylene- and CsA on Ca^2+-retention capacity of rat brain mitochondria (FIG. 4). Measurement of extramitochondrial Ca^2+ was determined using a Perkin-Elmer LS-50B fluorimeter controlled by the FL WinLab computer program. […] The final volume was 2.5 ml and the cuvette was thermostated at 25° C. Brain mitochondria were then subjected to a train of 5 μM Ca^2+ additions (˜150 nmol mg protein^−1). Extramitochondrial Ca^2+ was monitored at excitation/emission wavelengths of 505-535. […] The Ca^2+-retention capacity in liver (a) and brain mitochondria (b) were also compared (FIG. 4B).
(§1) The effect of Spiro[cyclopentane-1,5′-[5H]dibenzo[a,d]cyclohepten]-2-one,10′,11′-dihydro-3-methylene- at inhibiting MPTP was also investigated in mitochondria isolated from rat forebrain. […] Due to the difficulties mentioned above, the effect of Spiro[cyclopentane-1,5′-[5H]dibenzo[a,d]cyclohepten]-2-one,10′,11′-dihydro-3-methylene- on MPTP in brain mitochondria was more accurately investigated by subjecting mitochondria isolated from rat forebrain to a series of Ca^2+ pulses (5 μM, ˜150 nmol mg protein^−1) and by monitoring extramitochondrial Ca^2+ or using fluororescent probes.

MPTP [2] = target: T1, MPTP; assay: Ca2+-induced swelling in rat brain mitochondria; assay type: biochemical; settings: 80 μM CaCl2; potency in the range of liver mitochondria
Experimental: as §1

Cyp-D = Cyp-D (Homo sapiens, UniProt P30405); assay: Cyp-D peptidyl prolyl cis-trans isomerase enzymatic activity; assay type: biochemical; settings: at concentrations completely blocking MPTP
Cyp-D, sequence (P30405 30-207): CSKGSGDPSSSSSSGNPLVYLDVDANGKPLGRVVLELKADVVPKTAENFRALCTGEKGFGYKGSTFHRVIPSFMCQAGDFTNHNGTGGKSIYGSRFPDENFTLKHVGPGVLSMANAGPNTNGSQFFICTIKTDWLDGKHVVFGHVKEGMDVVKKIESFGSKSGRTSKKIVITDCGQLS

MPTP [3] = assay: MPTP induced by phenylarsineoxide or ATR; assay type: biochemical
MPTP [4] = test system: T2, MPTP; assay: Ca2+-induced swelling in deenergized liver mitochondria; assay type: biochemical; settings: n=2; 30 min after addition of 200 μM Ca2+; read-out: EC50 of MPTP inhibition in deenergized mitochondria
T2 construct: other: n=2; 30 min after addition of 200 μM Ca2+

YVDAC1 = target: T3, YVDAC1 (Saccharomyces cerevisiae, UniProt P04840); assay: Affinity labeling of yeast mitochondria (Δpor1 and Δpor1 expressing YVDAC1); assay type: binding; settings: Δpor1 yeast mitochondria expressing YVDAC1; increasing concentration
T3 construct: expressed in transfected cells; host or cells: Δpor1 yeast strain carrying a YVDAC1 plasmid; isolated mitochondria
T3 sequence (P04840 2-283): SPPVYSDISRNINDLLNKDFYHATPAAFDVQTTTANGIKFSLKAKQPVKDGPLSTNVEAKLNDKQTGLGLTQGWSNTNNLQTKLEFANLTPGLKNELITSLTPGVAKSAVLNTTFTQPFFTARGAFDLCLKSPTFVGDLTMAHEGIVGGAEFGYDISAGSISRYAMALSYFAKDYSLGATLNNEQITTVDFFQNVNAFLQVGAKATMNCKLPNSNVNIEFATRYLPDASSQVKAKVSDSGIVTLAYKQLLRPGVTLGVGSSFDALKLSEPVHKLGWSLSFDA
Source text: FIG. 9: Spiro[cyclopentane-1,5′-[5H]dibenzo[a,d]cyclohepten]-2-one,10′,11′-t2-10′,11′-dihydro-3-methylene affinity labeling of yeast mitochondria lacking the por1 gene for YVDAC1 (Δpor1) and into Δpor1 yeast mitochondria transfected with YVDAC1 in presence or absence of different concentrations of Spiro[cyclopentane-1,5′-[5H]dibenzo[a,d]cyclohepten]-2-one,10′,11′-dihydro-3-methylene (unlabeled). The fluorograms of gels after SDS-PAGE are shown. Mitochondria isolated from yeast strains were incubated in the presence of 10 nM Spiro[cyclopentane-1,5′-[5H]dibenzo[a,d]cyclohepten]-2-one,10′,11′-t2-10′,11′-dihydro-3-methylene for 15 min at 25° C. Numbers indicate the concentrations (μM) of the various compounds added.
To further confirm VDAC1 as the protein target of Spiro[cyclopentane-1,5′-[5H]dibenzo[a,d]cyclohepten]-2-one,10′,11′-dihydro-3-methylene-, the labeling of proteins in mitochondria prepared from yeasts by Spiro[cyclopentane-1,5′-[5H]dibenzo[a,d]cyclohepten]-2-one,10′,11′-t2-10′,11′-dihydro-3-methylene- was investigated. […] Increasing concentration of unlabelled Spiro[cyclopentane-1,5′-[5H]dibenzo[a,d]cyclohepten]-2-one,10′,11′-dihydro-3-methylene-inhibited incorporation of the radioactivity (FIG. 9).

MPTP [5] = target: T1, MPTP; assay: Ca2+-induced depolarisation (membrane potential, Rhodamine-123) of rat brain mitochondria; assay type: biochemical
Experimental: (B) Ca^2+-induced depolarisation of rat brain mitochondria. The medium used was as in the legend to FIG. 4, except that 0.5 μM Rhodamine-123 was added instead of Calcium Green-5N, and MPTP was induced by addition of 20 μM Ca^2+. Trace a, control (Ca^2+ alone), b, 300 nM Spiro[cyclopentane-1,5′-[5H]dibenzo[a,d]cyclohepten]-2-one,10′,11′-dihydro-3-methylene-, c, 300 nM Spiro[cyclopentane-1,5′-[5H]dibenzo[a,d]cyclohepten]-2-one,10′,11′-dihydro-3-methylene- and 50 μM Ub5.
The effect of Spiro[cyclopentane-1,5′-[5H]dibenzo[a,d]cyclohepten]-2-one,10′,11′-dihydro-3-methylene- at inhibiting MPTP was also investigated in mitochondria isolated from rat forebrain. […] Due to the difficulties mentioned above, the effect of Spiro[cyclopentane-1,5′-[5H]dibenzo[a,d]cyclohepten]-2-one,10′,11′-dihydro-3-methylene- on MPTP in brain mitochondria was more accurately investigated by subjecting mitochondria isolated from rat forebrain to a series of Ca^2+ pulses (5 μM, ˜150 nmol mg protein^−1) and by monitoring extramitochondrial Ca^2+ or using fluororescent probes. […] Virtually identical results were obtained from experiments where Δψm was monitored after a series of Ca^2+ additions (5 μM each). Each Ca^2+ additions caused a reversible decreases in Δψm, until MPTP opening completely collapsed Δψm and no further fluorescence increase could observed after addition of the protonophore FCCP.

Ca2+-buffering capacity (MPTP [1]): 1200±120 nmol Ca^2+ mg protein^−1
Inhibition of swelling in brain mitochondria (MPTP [2]): inhibited
Inhibition of Cyp-D peptidyl prolyl cis-trans isomerase activity (Cyp-D): did not inhibit
EC50 (MPTP [4]): 370 nM
Effect of unlabelled compound on incorporation of radioactivity (YVDAC1): inhibited
Inhibition of Ca2+-induced depolarisation (MPTP [5]; 300 nM, 20 μM Ca2+, relieved by 50 μM Ub5): inhibited
Number of Ca2+ additions necessary to induce complete depolarization (MPTP [5]; series of 5 μM Ca2+ additions, membrane potential monitored): increased
Structure (SMILES): C=C1CCC2(C1=O)c1ccccc1CCc1ccccc12 [Spiro[cyclopentane-1,5′-[5H]dibenzo[a,d]cyclohepten]-2-one,10′,11′-dihydro-3-methylene-]
Inhibition of MPTP induced by ATR (MPTP [3]; ATR 50 μM): inhibited
Inhibition of MPTP induced by phenylarsineoxide (MPTP [3]; phenylarsineoxide 25 μM): inhibited
